# Assays:
# [1] = molecular target: T1, Mitogen-activated protein kinase kinase kinase 6 (Homo sapiens) (UniProt O95382); assay: Selectivity interaction (ActivX KiNativ screen (kinase selectivity in THP-1 cell lysates)) EUB0000639a MAP3K6; assay type: subcellular; conditions: lysate, at 0.01 µM
# T1 sequence (whole entry): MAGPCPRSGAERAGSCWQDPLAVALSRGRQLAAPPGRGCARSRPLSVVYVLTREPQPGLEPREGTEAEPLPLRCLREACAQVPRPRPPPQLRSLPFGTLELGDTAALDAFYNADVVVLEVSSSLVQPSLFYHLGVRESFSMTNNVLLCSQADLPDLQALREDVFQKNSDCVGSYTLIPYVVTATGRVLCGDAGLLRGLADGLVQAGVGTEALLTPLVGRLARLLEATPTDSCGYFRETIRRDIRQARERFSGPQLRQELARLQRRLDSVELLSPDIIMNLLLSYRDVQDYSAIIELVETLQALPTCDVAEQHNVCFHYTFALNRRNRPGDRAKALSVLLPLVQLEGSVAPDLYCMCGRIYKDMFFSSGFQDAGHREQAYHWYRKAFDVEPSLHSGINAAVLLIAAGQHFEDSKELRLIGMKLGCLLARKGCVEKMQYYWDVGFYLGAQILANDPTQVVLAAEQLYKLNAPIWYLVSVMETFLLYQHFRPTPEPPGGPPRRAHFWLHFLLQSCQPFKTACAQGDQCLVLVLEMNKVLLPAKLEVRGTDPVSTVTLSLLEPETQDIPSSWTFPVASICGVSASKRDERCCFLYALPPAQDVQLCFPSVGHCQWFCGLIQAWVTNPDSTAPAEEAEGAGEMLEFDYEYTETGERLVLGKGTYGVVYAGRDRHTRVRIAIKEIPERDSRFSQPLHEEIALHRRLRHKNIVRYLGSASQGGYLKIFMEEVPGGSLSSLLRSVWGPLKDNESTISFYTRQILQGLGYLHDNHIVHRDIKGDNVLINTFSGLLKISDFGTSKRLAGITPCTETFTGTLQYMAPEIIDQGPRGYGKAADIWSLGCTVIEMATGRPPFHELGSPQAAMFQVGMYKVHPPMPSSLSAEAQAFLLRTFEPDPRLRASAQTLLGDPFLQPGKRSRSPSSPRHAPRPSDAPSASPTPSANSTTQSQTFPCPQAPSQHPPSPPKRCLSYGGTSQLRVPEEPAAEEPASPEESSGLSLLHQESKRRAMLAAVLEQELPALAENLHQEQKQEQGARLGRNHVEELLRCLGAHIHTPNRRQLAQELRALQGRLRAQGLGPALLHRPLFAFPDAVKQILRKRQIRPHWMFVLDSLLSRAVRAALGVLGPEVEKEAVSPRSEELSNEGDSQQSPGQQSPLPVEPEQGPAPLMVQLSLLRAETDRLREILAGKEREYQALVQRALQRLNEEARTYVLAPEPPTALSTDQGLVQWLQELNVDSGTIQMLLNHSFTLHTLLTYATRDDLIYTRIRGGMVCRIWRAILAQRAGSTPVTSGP
# [2] = molecular target: T2, Tyrosine-protein kinase Tec (Homo sapiens) (UniProt P42680); assay: Selectivity interaction (ActivX KiNativ screen (kinase selectivity in THP-1 cell lysates)) EUB0000639a TEC; assay type: subcellular; conditions: lysate, at 0.2 µM
# T2 sequence (whole entry): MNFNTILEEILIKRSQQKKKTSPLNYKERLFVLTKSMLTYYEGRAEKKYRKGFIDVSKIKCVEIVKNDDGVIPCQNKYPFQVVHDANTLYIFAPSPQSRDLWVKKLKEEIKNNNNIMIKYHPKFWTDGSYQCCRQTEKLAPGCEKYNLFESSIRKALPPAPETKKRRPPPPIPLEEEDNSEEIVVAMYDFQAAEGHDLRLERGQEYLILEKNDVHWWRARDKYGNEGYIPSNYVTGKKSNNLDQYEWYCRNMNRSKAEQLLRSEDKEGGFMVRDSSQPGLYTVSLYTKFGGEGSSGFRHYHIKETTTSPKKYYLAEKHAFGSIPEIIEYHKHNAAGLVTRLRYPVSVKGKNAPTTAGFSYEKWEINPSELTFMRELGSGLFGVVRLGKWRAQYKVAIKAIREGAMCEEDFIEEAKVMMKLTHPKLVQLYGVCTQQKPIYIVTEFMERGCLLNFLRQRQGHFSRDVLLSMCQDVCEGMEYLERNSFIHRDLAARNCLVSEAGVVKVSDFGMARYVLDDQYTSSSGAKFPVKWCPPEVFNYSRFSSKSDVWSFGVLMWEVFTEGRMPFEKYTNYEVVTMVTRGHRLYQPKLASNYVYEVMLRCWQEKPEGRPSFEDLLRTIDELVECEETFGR
# [3] = molecular target: Casein kinase II subunit alpha (Homo sapiens, UniProt P68400); assay: Selectivity interaction (ProQinase) EUB0000171b CSNK2A1
# [4] = molecular target: T3, G protein-coupled receptor kinase 3 (Homo sapiens) (UniProt P35626); assay: Selectivity interaction (ProQinase) EUB0000171b ADRBK2
# T3 sequence (whole entry): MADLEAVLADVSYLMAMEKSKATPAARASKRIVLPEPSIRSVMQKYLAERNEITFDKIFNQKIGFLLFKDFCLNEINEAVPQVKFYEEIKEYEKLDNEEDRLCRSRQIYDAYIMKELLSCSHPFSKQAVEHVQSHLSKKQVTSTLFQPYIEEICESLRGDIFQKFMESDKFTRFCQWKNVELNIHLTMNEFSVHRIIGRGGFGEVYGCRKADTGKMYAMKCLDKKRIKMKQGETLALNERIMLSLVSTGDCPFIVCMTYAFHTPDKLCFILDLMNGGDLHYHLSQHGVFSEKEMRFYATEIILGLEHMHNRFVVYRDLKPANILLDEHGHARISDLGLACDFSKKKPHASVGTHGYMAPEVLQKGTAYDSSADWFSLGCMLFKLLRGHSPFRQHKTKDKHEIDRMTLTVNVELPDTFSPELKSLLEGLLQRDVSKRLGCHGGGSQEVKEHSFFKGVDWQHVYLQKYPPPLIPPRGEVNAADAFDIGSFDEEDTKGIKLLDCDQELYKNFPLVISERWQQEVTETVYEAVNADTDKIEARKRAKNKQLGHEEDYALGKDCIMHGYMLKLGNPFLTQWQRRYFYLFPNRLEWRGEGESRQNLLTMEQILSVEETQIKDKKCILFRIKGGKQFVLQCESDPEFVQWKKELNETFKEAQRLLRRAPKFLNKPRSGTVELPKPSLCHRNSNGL
# [5] = molecular target: Proto-oncogene tyrosine-protein kinase Src (Homo sapiens, UniProt P12931); assay: Selectivity interaction (KinomeScan (DiscoverX)) EUB0000695a SRC; conditions: at 100 nM
# [6] = molecular target: Tyrosine-protein kinase Fer (Homo sapiens) (UniProt P16591); assay: Selectivity interaction (Kinase screening (Nanosyn)) EUB0000604a FER
# CREB-binding protein = CREB-binding protein (Homo sapiens, UniProt Q92793); assay: Selectivity interaction (Bromodomain panel (DSF asssay)) EUB0000270b CREBBP
# Chain of CREB-binding protein (Q92793 2-2442 limits assumed): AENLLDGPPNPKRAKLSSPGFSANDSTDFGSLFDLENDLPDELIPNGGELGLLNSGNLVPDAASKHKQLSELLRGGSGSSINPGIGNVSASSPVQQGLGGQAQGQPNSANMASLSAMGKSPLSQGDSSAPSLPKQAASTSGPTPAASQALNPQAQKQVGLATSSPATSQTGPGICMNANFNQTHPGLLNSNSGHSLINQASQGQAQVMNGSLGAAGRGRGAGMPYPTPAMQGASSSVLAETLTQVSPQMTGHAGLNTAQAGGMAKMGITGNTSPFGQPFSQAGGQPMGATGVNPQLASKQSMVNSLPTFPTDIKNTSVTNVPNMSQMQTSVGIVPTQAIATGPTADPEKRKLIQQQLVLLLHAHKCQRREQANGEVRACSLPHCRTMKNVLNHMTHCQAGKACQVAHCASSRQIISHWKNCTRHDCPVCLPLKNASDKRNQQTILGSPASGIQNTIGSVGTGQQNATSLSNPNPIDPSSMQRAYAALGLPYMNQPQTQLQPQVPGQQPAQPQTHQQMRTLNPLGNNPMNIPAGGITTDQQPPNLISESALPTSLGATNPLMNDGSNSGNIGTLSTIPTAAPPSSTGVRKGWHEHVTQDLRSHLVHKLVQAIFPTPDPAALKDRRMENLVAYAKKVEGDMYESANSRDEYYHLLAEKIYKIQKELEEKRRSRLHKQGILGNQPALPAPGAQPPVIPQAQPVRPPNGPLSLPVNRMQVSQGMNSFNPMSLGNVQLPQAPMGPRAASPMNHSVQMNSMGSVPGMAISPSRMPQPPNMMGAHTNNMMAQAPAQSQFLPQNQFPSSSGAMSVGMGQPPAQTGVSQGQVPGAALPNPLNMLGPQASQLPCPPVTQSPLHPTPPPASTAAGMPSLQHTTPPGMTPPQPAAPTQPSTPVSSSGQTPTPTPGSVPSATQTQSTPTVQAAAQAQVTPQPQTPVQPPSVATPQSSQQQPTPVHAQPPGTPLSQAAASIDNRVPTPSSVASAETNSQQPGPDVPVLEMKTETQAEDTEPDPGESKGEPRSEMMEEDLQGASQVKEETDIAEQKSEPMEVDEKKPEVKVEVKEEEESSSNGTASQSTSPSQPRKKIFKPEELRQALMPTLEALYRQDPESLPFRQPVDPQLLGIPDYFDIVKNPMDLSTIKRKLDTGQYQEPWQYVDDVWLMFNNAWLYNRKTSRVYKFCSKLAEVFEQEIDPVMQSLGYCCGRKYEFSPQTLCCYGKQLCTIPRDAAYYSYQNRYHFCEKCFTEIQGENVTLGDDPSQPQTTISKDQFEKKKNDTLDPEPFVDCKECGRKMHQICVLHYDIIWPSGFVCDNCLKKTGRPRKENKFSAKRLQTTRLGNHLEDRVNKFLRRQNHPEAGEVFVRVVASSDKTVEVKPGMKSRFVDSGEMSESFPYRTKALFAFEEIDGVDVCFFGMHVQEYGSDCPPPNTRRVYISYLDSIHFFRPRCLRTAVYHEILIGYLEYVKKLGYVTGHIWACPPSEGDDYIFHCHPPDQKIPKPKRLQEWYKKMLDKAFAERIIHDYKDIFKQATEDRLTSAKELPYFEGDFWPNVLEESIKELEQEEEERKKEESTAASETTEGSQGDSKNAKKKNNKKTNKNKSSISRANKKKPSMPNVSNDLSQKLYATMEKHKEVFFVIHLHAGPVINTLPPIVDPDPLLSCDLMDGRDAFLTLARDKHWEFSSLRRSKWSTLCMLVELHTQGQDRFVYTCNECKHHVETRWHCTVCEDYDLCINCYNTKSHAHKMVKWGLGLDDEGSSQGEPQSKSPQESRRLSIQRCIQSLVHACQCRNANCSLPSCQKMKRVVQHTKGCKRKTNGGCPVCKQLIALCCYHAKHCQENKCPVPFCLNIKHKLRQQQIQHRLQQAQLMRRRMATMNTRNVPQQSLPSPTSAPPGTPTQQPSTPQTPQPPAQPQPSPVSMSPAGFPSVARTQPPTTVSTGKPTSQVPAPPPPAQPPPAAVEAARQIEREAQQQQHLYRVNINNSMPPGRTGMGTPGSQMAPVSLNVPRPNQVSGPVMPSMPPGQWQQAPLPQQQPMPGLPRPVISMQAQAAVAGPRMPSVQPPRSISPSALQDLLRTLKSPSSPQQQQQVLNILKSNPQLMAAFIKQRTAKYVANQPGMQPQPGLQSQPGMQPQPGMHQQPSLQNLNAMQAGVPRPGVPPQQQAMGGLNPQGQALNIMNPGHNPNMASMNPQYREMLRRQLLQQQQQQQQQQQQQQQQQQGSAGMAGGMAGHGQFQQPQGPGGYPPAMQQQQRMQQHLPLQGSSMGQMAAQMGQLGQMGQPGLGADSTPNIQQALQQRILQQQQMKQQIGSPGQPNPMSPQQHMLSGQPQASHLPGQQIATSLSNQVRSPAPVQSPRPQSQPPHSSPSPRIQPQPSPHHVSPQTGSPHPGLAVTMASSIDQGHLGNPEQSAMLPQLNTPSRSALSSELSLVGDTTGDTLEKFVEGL
# Chain of Casein kinase II subunit alpha (P68400 whole entry, looked up): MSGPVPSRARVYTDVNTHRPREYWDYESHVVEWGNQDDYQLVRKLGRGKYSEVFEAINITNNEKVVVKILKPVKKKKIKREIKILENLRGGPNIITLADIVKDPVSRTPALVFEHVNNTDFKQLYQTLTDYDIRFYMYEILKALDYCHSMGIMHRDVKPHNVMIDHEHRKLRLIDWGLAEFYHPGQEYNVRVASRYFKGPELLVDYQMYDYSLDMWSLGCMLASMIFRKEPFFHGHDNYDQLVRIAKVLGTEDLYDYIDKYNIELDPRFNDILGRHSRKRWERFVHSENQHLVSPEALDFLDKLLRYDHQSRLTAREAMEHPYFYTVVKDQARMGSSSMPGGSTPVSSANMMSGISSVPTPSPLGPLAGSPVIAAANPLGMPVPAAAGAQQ
# Chain of Proto-oncogene tyrosine-protein kinase Src (P12931 2-536 limits assumed): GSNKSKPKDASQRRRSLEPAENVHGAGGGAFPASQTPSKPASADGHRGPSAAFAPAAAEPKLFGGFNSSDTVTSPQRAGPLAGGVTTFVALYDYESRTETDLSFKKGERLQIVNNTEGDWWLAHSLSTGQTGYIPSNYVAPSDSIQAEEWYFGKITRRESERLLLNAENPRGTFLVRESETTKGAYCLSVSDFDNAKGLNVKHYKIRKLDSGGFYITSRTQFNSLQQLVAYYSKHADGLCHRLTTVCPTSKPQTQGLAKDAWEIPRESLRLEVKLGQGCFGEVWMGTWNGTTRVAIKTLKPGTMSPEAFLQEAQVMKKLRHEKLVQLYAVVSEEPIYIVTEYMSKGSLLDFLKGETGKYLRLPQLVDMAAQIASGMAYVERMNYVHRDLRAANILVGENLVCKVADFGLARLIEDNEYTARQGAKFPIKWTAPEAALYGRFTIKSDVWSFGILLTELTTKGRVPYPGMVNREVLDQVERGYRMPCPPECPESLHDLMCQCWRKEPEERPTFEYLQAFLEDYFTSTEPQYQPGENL
# Chain of Tyrosine-protein kinase Fer (Homo sapiens) (P16591 whole entry, looked up): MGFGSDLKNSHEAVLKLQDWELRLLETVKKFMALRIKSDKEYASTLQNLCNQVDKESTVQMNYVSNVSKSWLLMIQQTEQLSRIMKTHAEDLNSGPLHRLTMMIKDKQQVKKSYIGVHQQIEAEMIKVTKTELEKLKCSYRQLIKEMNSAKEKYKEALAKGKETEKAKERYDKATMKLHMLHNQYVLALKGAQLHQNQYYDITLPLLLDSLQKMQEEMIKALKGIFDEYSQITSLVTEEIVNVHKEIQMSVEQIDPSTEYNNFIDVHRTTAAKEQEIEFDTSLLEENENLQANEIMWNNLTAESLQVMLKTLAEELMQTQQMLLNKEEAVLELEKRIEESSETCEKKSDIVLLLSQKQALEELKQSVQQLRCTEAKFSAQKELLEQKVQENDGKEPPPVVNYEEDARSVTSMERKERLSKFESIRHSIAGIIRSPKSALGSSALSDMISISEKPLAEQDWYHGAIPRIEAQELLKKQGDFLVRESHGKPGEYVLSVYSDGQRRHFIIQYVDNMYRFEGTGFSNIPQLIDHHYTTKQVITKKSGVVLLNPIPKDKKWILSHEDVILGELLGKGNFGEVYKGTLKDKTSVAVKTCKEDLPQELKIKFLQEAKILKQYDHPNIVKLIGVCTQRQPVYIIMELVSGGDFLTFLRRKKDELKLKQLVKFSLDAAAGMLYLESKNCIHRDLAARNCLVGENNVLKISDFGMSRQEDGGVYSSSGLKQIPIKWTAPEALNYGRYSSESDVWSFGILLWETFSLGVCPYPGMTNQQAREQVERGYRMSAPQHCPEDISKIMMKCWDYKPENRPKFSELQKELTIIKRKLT
smiles,measurement,setting,value
CC[C@@H]1[C@H](F)C(=O)N[C@@H]1COc1nccc2cc(C(N)=O)c(OC)cc12 [ZIMLOVISERTIB],% of inhibition,[1],3.1%
same,% of inhibition,[2],-52.3%
C=CC(=O)Nc1cccc(C(=O)Nc2ccc(Nc3cc(-c4[nH]c(SC)nc4C)ccn3)cc2)c1,% of control,[3]; at 1 µM,92%
same,% of control,[3]; at 5 µM,75%
same,% of control,[4]; at 1 µM,94%
same,% of control,[4]; at 5 µM,95%
Cc1cc(F)c(C(=O)Nc2cccc(-c3nncn3C(C)C)n2)cc1-n1cnc(C2CC2)c1,% of control,[5],100%
Cc1cnc(Nc2ccc(F)cc2Cl)nc1-c1c[nH]c(C(=O)N[C@H](CO)c2cccc(Cl)c2)c1,% of inhibition,[6],3%
Cc1cc(CN)cc(C)c1-c1ncn(C)c1-c1cncn1C,dTM,CREB-binding protein,-1.89 K

# From ChEMBL document CHEMBL5465560, “Selectivity Literature for EUbOPEN Chemogenomic Library” (2024)
